Like-named read-outs stand apart in the source and are kept apart here. Marks after values point to notes of the source that are not given here. Each block holds one molecule with its values, some of them ahead of it.
Assays:
C. elegans [1] = assay: C. elegans motility dose-response (DR) assay; design: species or system Caenorhabditis elegans
[2] = test system: H. contortus susceptible strain; assay: Egg hatch inhibition (EHI), ovicidal effect; design: species or system Haemonchus contortus; details: susceptible strain, 100 μM, NE = Not Effective at 100 μM, control thiabendazole 0.1 µg/mL; for inhibition at 100 µM: Haemonchus contortus
[3] = test system: T. circumcincta resistant strain; assay: Egg hatch inhibition (EHI), ovicidal effect; design: species or system Teladorsagia circumcincta; details: resistant strain, 100 μM; NE = Not Effective at 100 μM; control thiabendazole 0.1 µg/mL
[4] = test system: H. contortus susceptible strain; assay: Larval migration inhibition test (LMIT); design: species or system Haemonchus contortus; details: L3, 100 μM, NE = Not Effective at 100 μM, control ivermectin 8.75 µg/mL; for inhibition at 100 µM: Haemonchus contortus, 24 h
Source text: (§1) Eggs and third instar larvae (L3) of H. contortus from a field strain and a resistant strain of T. circumcincta were used in the current trials. These parasitic forms were obtained from fresh feces of Merino and Churra sheep experimentally infected at the experimental farm of the Instituto de Ganadería de Montaña (IGM, CSIC, Gruyeros, León, Spain) and purified according to previously described methods. Briefly, eggs were taken from fresh feces, washed, centrifuged and floated with a saturated sodium chloride solution, then concentrated, counted and used in the assays. L3 were obtained by culturing feces at 25 °C for 13 d. L3 larvae were […] in 0.5% sodium hypochlorite solution for 10 min at room temperature and washed to avoid excess salt. After washing, they were concentrated and counted for use.
(§2) The viability of H. contortus larvae was assessed by the larval migration inhibition test (LMIT) according to previously described methods. Briefly, 700 µL aliquots containing 500–600 L3 were prepared for each compound. […] After a 24 h incubation at 28 °C, the compound was removed by three washes, leaving a final volume of 1400 µL. After the washes, three 400 µL aliquots were taken from each tube and transferred to a 96-well plate with a MultiScreen mesh filter. The plates were incubated for a further 24 h at 28 °C to allow the motile L3 to pass through the 20 µm mesh for counting. Then, the number of larvae present in each well was counted to determine percentage of larval migration for each compound: % Larval migration=number of larvae migrating in compound wells/number of larvae migrating in negative control×100
(§3) For the larvae, ivermectin at 8.75 µg/mL and DMSO 0.5% (v/v) were used as controls and at least 12 replicates were performed. […] EC50 were determined by plotting the percentage of viability of the L1 against the concentration of each compound, using the nonlinear fit analysis provided by the SigmaPlot® 10.1.

[5] = test system: T. circumcincta resistant strain; assay: Larval migration inhibition test (LMIT); design: species or system Teladorsagia circumcincta; details: for inhibition at 100 µM: Teladorsagia circumcincta, 24 h, read-out: T. circumcincta LMIT (%)
Source text: as §1, §2, §3

C. elegans [6] = test system: C. elegans
C. elegans [7] = assay: microbe, parasite or virus in culture; details: Caenorhabditis elegans
C. elegans [8] = details: read-out: EC50 found in the literature; cited from earlier work
[9] = read-out: EC50 (μM) at 24 h, C. elegans motility, DR assay
[10] = resistant strain, L3, 100 μM, NE = Not Effective at 100 μM, control ivermectin 8.75 µg/mL
[11] = C. elegans L4 motility, 110 μM, 0 h, mean ± SD of four experiments
[12] = C. elegans L4 motility, 110 μM, 24 h, mean ± SD of four experiments
[13] = Caenorhabditis elegans, 24 h, read-out: EC50 (μM) at 24 h, C. elegans motility, DR assay, 24 h
[14] = 0 h, read-out: Inhibition (%) 110 μM (0 h), C. elegans L4 motility, 110 μM, 0 h, mean ± SD of four experiments
[15] = 0 h, read-out: Percentage of motility inhibition 0 h, Table S2, C. elegans SS assay, 110 μM, 0 h, averages of 4 data points
[16] = 24 h, read-out: Inhibition (%) 110 μM (24 h), C. elegans L4 motility, 110 μM, 24 h, mean ± SD of four experiments
[17] = 24 h, read-out: Percentage of motility inhibition 24 h, Table S2, C. elegans SS assay, 110 μM, 24 h, averages of 4 data points

Compound: CC1(C)[C@H](OC(=O)c2ccccc2)CC[C@]2(C)C3=C([C@@H](O)C[C@@H]12)[C@@]1(C)CC[C@@]2(C)CC[C@@](C)(COC(=O)c4ccccc4)C[C@H]2[C@]1(C)CC3 [3,29-dibenzoyl rarounitriol]
- EC50 (C. elegans [1]; [9]): 45.4 ± 5.1 µM
- H. contortus EHI (%) [2]: 0.0%
- T. circumcincta EHI (%) [3]: 0.0%
- H. contortus LMIT (%) [4]: 0.0%
- T. circumcincta LMIT (%) [5, 10]: 0.0 * %
- Inhibition (%) 110 μM (0 h) (C. elegans [6]; [11]): 40 ± 22%
- Inhibition (%) 110 μM (24 h) (C. elegans [6]; [12]): 71 ± 19%

Compound: C[C@@H]1CC[C@@]2(OC1)O[C@H]1C[C@H]3[C@@H]4CC=C5C[C@@H](O[C@@H]6O[C@H](CO)[C@@H](O[C@@H]7O[C@@H](C)[C@H](O)[C@@H](O)[C@H]7O)[C@H](O)[C@H]6O[C@@H]6O[C@@H](C)[C@H](O)[C@@H](O)[C@H]6O)CC[C@]5(C)[C@H]4CC[C@]3(C)[C@H]1[C@@H]2C [Dioscin]
- EC50 (C. elegans [1]; Caenorhabditis elegans, read-out: EC50 (μM) at 24 h, C. elegans motility, DR assay): 37.8 ± 1.3 µM
- inhibition at 100 µM [4]: 0%
- inhibition at 100 µM [5]: 0%
- inhibition at 110 µM (C. elegans [7]; 0 h, read-out: Inhibition (%) 110 μM (0 h)): 12 ± 1%
- inhibition at 110 µM (C. elegans [7]; 24 h, read-out: Inhibition (%) 110 μM (24 h)): 79 ± 2%

Compound: CCc1c(Cl)c(O)c(Cl)c(O)c1C(=O)O[C@H]1[C@H](O)[C@H](OC)[C@H](OC/C2=C\C=C\C[C@H](O)/C(C)=C/[C@H](CC)[C@@H](O[C@@H]3OC(C)(C)[C@@H](OC(=O)C(C)C)[C@H](O)[C@@H]3O)/C(C)=C/C(C)=C/C[C@@H]([C@@H](C)O)OC2=O)O[C@@H]1C [Fidaxomicin, reference compound]
- EC50 (C. elegans [1]; [13]): > 60 µM
- inhibition at 110 µM (C. elegans [7]; [14]): 82 ± 7%
- inhibition at 110 µM (C. elegans [7]; [16]): 89 ± 1%
- inhibition at 110 µM (C. elegans [7]; [17]): 88%

Compound: CN[C@H]1C[C@@H](N)[C@H](O)[C@@H](O[C@@H]2O[C@H](CO)[C@H](O)[C@@H]3OC4(O[C@H]23)O[C@H]([C@@H](N)CO)[C@H](O)[C@H](O)[C@H]4O)[C@@H]1O (some centres unmarked) [Hygromycin B, reference compound]
- EC50 (C. elegans [1]; [9]): > 60 µM
- Inhibition (%) 110 μM (0 h) (C. elegans [6]): 67 ± 28%
- Inhibition (%) 110 μM (24 h) (C. elegans [6]): 89 ± 5%

Compound: CC(C)=CCc1c(-c2ccc(O)cc2O)oc2c([C@H]3C=C(C)C[C@@H](c4ccc(O)cc4O)[C@@H]3C(=O)c3ccc(O)cc3O)c(O)cc(O)c2c1=O [Kuwanon G]
- EC50 (C. elegans [1]; [9]): 34.7 ± 1.6 µM
- H. contortus EHI (%) [2]: 9.4 ± 1.8%
- H. contortus LMIT (%) [4]: 0.0%
- Inhibition (%) 110 μM (0 h) (C. elegans [6]; [11]): 0 ± 0%
- Inhibition (%) 110 μM (24 h) (C. elegans [6]; [12]): 74 ± 5%
- Percentage of motility inhibition 24 h (C. elegans [6]; Table S2, C. elegans SS assay, 110 μM, 24 h, averages of 4 data points): 75%

Compound: CC1(C)CCC[C@]2(C)[C@@H](C=O)C(C=O)=CC[C@@H]12 [Polygodial]
- EC50 (C. elegans [1]; [13]): 33.2 ± 6.4 µM
- inhibition at 100 µM [2]: 0%
- inhibition at 100 µM [4]: 0%
- inhibition at 110 µM (C. elegans [7]; [14]): 0%
- inhibition at 110 µM (C. elegans [7]; [16]): 93 ± 4%

Further lines, with some results ahead:

- EC50 (C. elegans [1]; [13]): > 60 µM
Compound: Cc1cc(O)cc(C)c1Cl [Chloroxylenol, reference compound]
- inhibition at 110 µM (C. elegans [7]; [14]): 100%
- inhibition at 110 µM (C. elegans [7]; [15]): 100%
- inhibition at 110 µM (C. elegans [7]; [16]): 100%
- inhibition at 110 µM (C. elegans [7]; [17]): 100%

- EC50 (C. elegans [1]; [9]): 28.2 ± 1 µM
Compound: CCOc1ccc2nc3cc(N)ccc3c(N)c2c1 [Ethacridine lactate monohydrate, reference compound]
- H. contortus EHI (%) [2]: 54.8 ± 11.7%
- T. circumcincta EHI (%) [3]: 0.0%
- H. contortus LMIT (%) [4]: 0.0%
- inhibition at 100 µM [5, 10]: 0%
- Inhibition (%) 110 μM (0 h) (C. elegans [6]; [11]): 73 ± 17%
- Inhibition (%) 110 μM (24 h) (C. elegans [6]; [12]): 89 ± 4%
- inhibition at 110 µM (C. elegans [7]; [15]): 72%

- EC50 (C. elegans [1]; [13]): 50.1 ± 1 µM
Compound: CCOc1ccc2nc3cc(N)ccc3c(N)c2c1 [Ethacridine lactate, reference compound]
- inhibition at 100 µM [2]: 55.8 ± 5.1%
- T. circumcincta EHI (%) [3]: 4.0 ± 1.5%
- H. contortus LMIT (%) [4]: 4.9 ± 2.2%
- inhibition at 110 µM (C. elegans [7]; [14]): 66 ± 26%
- inhibition at 110 µM (C. elegans [7]; [16]): 87 ± 6%

- EC50 (C. elegans [1]; [13]): 1.91 µM
Compound: c1ccc([C@H]2CN3CCSC3=N2)cc1 [Levamisole, reference compound]
- EC50 (C. elegans [8]): 6.4 µM
- inhibition at 110 µM (C. elegans [7]; [14]): 87 ± 10%
- inhibition at 110 µM (C. elegans [7]; [16]): 61 ± 3%

- EC50 (C. elegans [1]; [13]): > 60 µM
Compound: O=[N+]([O-])c1ccc(O)c2ncccc12 [Nitroxoline, reference compound]
- inhibition at 110 µM (C. elegans [7]; [14]): 52 ± 32%
- inhibition at 110 µM (C. elegans [7]; [16]): 88 ± 2%
